Experiments:
[1] = tested on: primary human tumors (esophageal, gastric); assay: TCA: Compound B-1 with 5-FU, primary tumors; format: cell-based
Protocol: (§1) In both studies, cell viability was assessed after 6 days in culture. Statistical analysis of the combination matrix was performed to assess whether synergy, additivity, or antagonism of the combination treatments were observed.
(§2) Materials: Primary patient samples (See Tables 16 and 17, below) were excised from mice when they reached 500 mg to 1000 mg in size and processed immediately, or after overnight shipment. Tumors were serially passaged by subcutaneous implantation of 50 mg to 150 mg fragments into the flanks of immunocompromised (nude) mice. Tumors were used within the first 5 or 7 passages.
(§3) Tumor Chemosensitivity Assay (TCA): Primary tumor samples were grown and serially passaged in immunocompromised mice. Tumors were mechanically dissociated into small fragments (1 mm to 2 mm) with scalpels in phosphate buffered saline (PBS or RPMI) and centrifuged at 200×g for 5 minutes at room temperature in 50 mL centrifuge tubes. Samples were resuspended in 10 mL of cell dissociation reagent and enzymatically digested with mechanical agitation for 1 to 3 hours at 37° C., 5% CO2 to a single cell suspension. Ten mL of complete RPMI-1640 media was added to the cell mixture and pipetted up and down 4 to 5 times. The mixture was then passed through a 70 μm or 100 μm mesh strainer to remove undigested tumor. The filtrate was then centrifuged 200×g for 5 minutes at room temperature and resuspended in 20 mL complete RPMI-1640. This cell suspension was slowly layered onto 20 mL of room temperature Histopaque and centrifuged at 400×g for 15 minutes at room temperature without a brake. The interface was transferred to a new 50 mL centrifuge tube and 15 mL of complete RPMI-1640 was added. This suspension was centrifuged at 200×g at room temperature, and the resulting pellet was resuspended in 10 mL of complete PC-1 media, except for pancreatic tumors in which case Pancreatic Medium was used. Cells were diluted in Trypan blue, and viable cells that excluded the dye were counted. Only the larger, tumor cells were included in the cell count. Cells were diluted in complete PC-1 or Pancreatic media, as appropriate for the cells, and were plated at 15,000 to 20,000 cells per well in 100-135 μL in ultra-low attachment U-bottom plates.
(§4) Compound Addition: For these studies, a 10 mM stock of the DNA-PK inhibitor (Compound B-1 or Compound B-2) was made in DMSO and used to add to cells from most tumors with HP D300 Digital Dispenser (Tecan US, Morrisville, NC, USA), or diluted into the appropriate media (PC-1 or pancreatic media) as a 5-10× stock and added to cells (OVX001 and ENX001, 005). PC-1, pancreatic media, and chemotherapeutics were also added so that final well volume was 150 μL. Doxorubicin was made as DMSO stock of 1 or 10 mM and added to cells for most tumors with HP D300 Digital Dispenser, or diluted into PC-1 as 5-10× stock and added to cells (OVX001 and ENX001, 005). Cisplatin (cis-diammine platinum(II), dichloride) was prepared fresh to 10 mM in warm (60° C.) distilled water and diluted in PC-1 as a 5-10× stock. […] Different starting concentrations, dose ranges, and number of doses were used for each experiment based on the response data available at the time.
(§5) For bleomycin experiments, combinations with Compound B-1 at all concentrations were run in triplicate. A 6×3 matrix was designed on one plate, consisting of a 2-point concentration range of 0.73 μM and 2.2 μM Compound B-1 plus no treatment control, in 3 columns each of 6 wells. Bleomycin (plus ‘no treatment’ control) was added to 9 wells in rows of this plate. Similar 6×3 matrices were set up for additional agents with different starting concentrations for compound dilutions. For cisplatin experiments the starting concentration was 30 μM which was diluted 1:3. […] For doxorubicin hydrochloride experiments the starting concentration was 5 μM doxorubicin which was diluted 1:3. For gemcitabine experiments the starting concentration was 5 μM gemcitabine which was diluted 1:3. […]

[2] = tested on: primary human tumors (NSCLC, esophageal, gastric); assay: TCA: Compound B-1 with cisplatin, primary tumors; format: cell-based; set-up: Average Bliss score: scale not given here
Protocol: as §1, §2, §3, §4, §5

[3] = tested on: pKAP1 and pH2AX levels in A549 cells; assay: pH2AX and pKAP1 immunoblot, Compound B-1 and etoposide in A549 lung cells; format: cell-based, human; settings: 3 μM Compound B-1 + 10 μM etoposide; at 8 h
Protocol: The human cancer cell lines A549 (CCL-185), DU4475 (HTB-123), MDA-MB-436 (HTB-130), and MDA-MB-468 (HTB-132) were obtained from American Type Culture Collection (ATCC; Manassas, VA).
The A549 human lung cancer cell line was purchased from ATCC and was cultured in DMEM supplemented with 10% fetal bovine serum, 1× non-essential amino acids and 1× Penicillin/Streptomycin (complete medium). Cells were maintained at a subconfluent state by passaging every 2-3 days. Human breast cancer cells lines DU4475, MDA-MB-436, and MDA-MB-468 were purchased from ATCC and cultured in DMEM supplemented with 10% fetal bovine serum, 1× Glutamax and Penicillin/Streptomycin. Cells were maintained at a subconfluent state by passaging every 2-3 days.
Cells were then incubated for the indicated amount of time and harvested for analysis.
A 15-μL aliquot of each SDS-PAGE sample was loaded onto 12-lane 4 20% Tris-Glycine gels and the gels were run at 125v constant voltage until the dye front reached the bottom (approximately 2 h). Following electrophoresis, separated proteins in the gels were transferred to a nitrocellulose membrane. Transfer was carried out for 2 h at 1.5 A constant current in a cold room using a Hoefer transfer apparatus (Model TE42 or TE62, Hoefer Inc, Holliston, MA) according to manufacturer's instructions. […]

## CNC(=O)c1ccnc2c([C@H](C)CNc3cc(-c4cnc(C)nc4)ncn3)cccc12 [Compound B-1]
[1]; 5 tumors
  tumors that showed synergy or additivity: 100%
[1]; tumor ESX005, Esophageal
  Average Bliss score: −1
  Synergy/Additivity/Antagonism: Additive (Values between 5 and −5 are considered additive)
[1]; tumor ESX008, Esophageal
  Average Bliss score: −2
  Synergy/Additivity/Antagonism: Additive (Values between 5 and −5 are considered additive)
[1]; tumor GAX001, Gastric
  Average Bliss score: 6
  Synergy/Additivity/Antagonism: Synergistic (greater than 5 are considered synergistic)
[1]; tumor GAX007, Gastric
  Average Bliss score: 0
  Synergy/Additivity/Antagonism: Additive (Values between 5 and −5 are considered additive)
[1]; tumor GAX027, Gastric
  Average Bliss score: 4
  Synergy/Additivity/Antagonism: Additive (Values between 5 and −5 are considered additive)
[2]; nine of 10 tumors
  tumors that showed additivity or synergy: 90%
[2]; one of 10 tumors
  tumors that demonstrated antagonism: 10%
[2]; tumor ESX005, Esophageal
  Average Bliss score: 2
  Synergy/Additivity/Antagonism: Additive (Values between 5 and −5 are considered additive)
[2]; tumor ESX008, Esophageal
  Average Bliss score: 1
  Synergy/Additivity/Antagonism: Additive (Values between 5 and −5 are considered additive)
[2]; tumor GAX001, Gastric
  Average Bliss score: 14
  Synergy/Additivity/Antagonism: Strongly Synergistic (greater than 10 are considered strongly synergistic)
[2]; tumor GAX007, Gastric
  Average Bliss score: 2
  Synergy/Additivity/Antagonism: Additive (Values between 5 and −5 are considered additive)
[2]; tumor GAX027, Gastric
  Average Bliss score: −3
  Synergy/Additivity/Antagonism: Additive (Values between 5 and −5 are considered additive)
[2]; tumor OD33117, Lung (NSCLC)
  Average Bliss score: 6
  Synergy/Additivity/Antagonism: Synergistic (greater than 5 are considered synergistic)
[2]; tumor OD33966, Lung (NSCLC)
  Average Bliss score: −1
  Synergy/Additivity/Antagonism: Additive (Values between 5 and −5 are considered additive)
[2]; tumor OD36088, Lung (NSCLC)
  Average Bliss score: 6
  Synergy/Additivity/Antagonism: Synergistic (greater than 5 are considered synergistic)
[2]; tumor TS110310, Lung (NSCLC)
  Average Bliss score: −3
  Synergy/Additivity/Antagonism: Additive (Values between 5 and −5 are considered additive)
[2]; tumor YAS111611, Lung (NSCLC)
  Average Bliss score: −6
  Synergy/Additivity/Antagonism: Antagonistic (less than −5 are considered antagonistic)
[3]
  pH2AX level, max increase as compared to etoposide treatment alone: 2 fold
  pKAP1 level, max increase as compared to etoposide treatment alone: 7 fold
